Article PMC4610166, “Structural and Functional Characterization of Recombinant Isoforms of the Lentil Lipid Transfer Protein” (Acta Naturae, 2015)

Tests used:
Experiment in all cases: TNS fluorescence displacement (ex […] nm, em […] nm)
Assay type in all cases: binding
[1] = target: T1, Lc-LTP3 (Lens culinaris, UniProt A0AT30); conditions: protein 2.5 uM; 3 uM TNS, 65 uM stearic acid; 175 mM D-mannitol, 0.5 mM K2SO4, 0.5 mM CaCl2, 5 mM MES pH 7.0, 25 C; competition with TNS
T1 construct: mature protein, 93 residues; expressed in E. coli BL21(DE3) as His8-TrxL fusion, tag cut off with CNBr; from soluble fraction; four disulfides; monomer and dimer on SDS-PAGE

[2] = target: T2, Lc-LTP2 (Lens culinaris, UniProt A0AT29); conditions: protein 2.5 uM; 3 uM TNS, 65 uM stearic acid; 175 mM D-mannitol, 0.5 mM K2SO4, 0.5 mM CaCl2, 5 mM MES pH 7.0, 25 C; competition with TNS
T2 sequence (A0AT29 26-118): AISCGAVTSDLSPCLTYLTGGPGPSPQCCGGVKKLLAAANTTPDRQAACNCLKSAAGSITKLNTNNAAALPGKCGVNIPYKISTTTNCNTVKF

[3] = target: T3, Lc-LTP1 (Lens culinaris, UniProt A0AT28); conditions: refolded protein 2.5 uM; 3 uM TNS, 65 uM stearic acid; 175 mM D-mannitol, 0.5 mM K2SO4, 0.5 mM CaCl2, 5 mM MES pH 7.0, 25 C; competition with TNS
T3 construct: mature protein, 93 residues; expressed in E. coli BL21(DE3) as His8-TrxL fusion, tag cut off with CNBr; four disulfides; monomer and dimer on SDS-PAGE
T3 sequence (A0AT28 26-118): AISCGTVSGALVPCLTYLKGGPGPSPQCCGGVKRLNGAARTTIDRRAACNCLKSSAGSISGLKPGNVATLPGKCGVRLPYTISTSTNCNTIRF

T1 sequence (A0AT30 26-118): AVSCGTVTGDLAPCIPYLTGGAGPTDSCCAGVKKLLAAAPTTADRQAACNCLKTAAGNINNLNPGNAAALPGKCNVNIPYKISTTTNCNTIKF

CCCCCCCCCCCCCCCCCC(=O)O [stearic acid]
% fluorescence intensity of the protein-TNS complex [1]: all three isoforms possess the ability to bind fatty acids
% fluorescence intensity of the protein-TNS complex [2]: all three isoforms possess the ability to bind fatty acids
% fluorescence intensity of the protein-TNS complex [3]: all three isoforms possess the ability to bind fatty acids
